From EP0129932A1, “N,N,N',N'-tetra (hydroxyethyl)-5-acetylamino-2,4,6-triiodoisophtaloyldiglycinamide, a process for the preparation of said compound and an X-ray contrast agent containing said compound” (DAGRA N.V., priority 1983, dated 1985)
≈ marks a conversion by molar mass, not a printed value.

Assays:
mice = assay: intravenous toxicity in mice; type: in vivo; conditions: solution of 300 mg I/ml, injection rate 20 g 1/kg/min
Experimental: The intravenous toxicity was determined in mice, after administration of a solution of 300 mg I/ml at an injection rate of 20 g 1/kg/min.

physchem = conditions: water

Compound `CC(=O)Nc1c(I)c(C(=O)NCC(=O)N(CCO)CCO)c(I)c(C(=O)NCC(=O)N(CCO)CCO)c1I` [The compound] has an LD50 (mice) of 15.4 g I/kg and a solubility (physchem) of roughly 3000 mg/mL (≈ 3370 mM).
